What was measured:
[1] = molecular target: Recombinant human ENPP3 protein (Homo sapiens (Human), UniProt O14638); experiment: ENPP3 cGAMP Biochemical Assay; details: 70.5 nM ENPP3, 120 μM 2′3′-cGAMP substrate, TR-FRET
Experimental: ENPP3 cGAMP Biochemical Assay
Compounds were added to 384 well Proxiplate (PerkinElmer, Waltham MA) at 100 nl/well from DMSO stocks using Echo (Labcyte, San Jose CA). Recombinant human ENPP3 protein (Acro Biosystems, Newwark DE) was prepared in assay buffer (50 mM Tris pH7.5, 1 mM TCEP pH7.0, 2 mM MgCl2, 2 mM CaCl2), 2 mM ZnCl2 and 0.005% Tween20) and added at 2 μl/well. The plate was sealed, centrifuged at 1000 rpm for 1 minute and incubated at room temperature for 30 minutes before 2 μl substrate 2′3′-cGAMP (R&D Systems, Minneapolis MN) in assay buffer was added to each well to a final concentration of 70.5 nM ENPP3 and 120 μM 2′3′-cGAMP. The plate was sealed and centrifuged at 1000 rpm for 1 minute again. After incubation at 25° C. for 60 minutes, Terbium labelled AMP/GMP antibody and AMP/GMP HiLyte647 Tracer (BellBrook Labs, Fitchburg WI) in detection buffer (50 mM Tris pH7.5, 20 mM EDTA and 0.1% Prionex) were added to the reaction mixture to a final concentration of 475 nM and 3 nM respectively. The assay plate was incubated at room temperature for 120 minutes. TR-FRET signal was detected using Envision (PerkinElmer, Waltham MA).

[2] = molecular target: carbonic anhydrase I enzyme (Homo sapiens (Human), UniProt P00915); experiment: Carbonic Anhydrase 1 Enzymatic Assay; type: biochemical; details: enzyme from human erythrocyte, 500 μM 4-nitrophenyl acetate, absorbance 400 nm; read-out: CA I IC50
Experimental: Carbonic Anhydrase 1 Enzymatic Assay
(§1) Test compound and/or vehicle was preincubated with carbonic anhydrase I enzyme (15 μg/ml) isolated from human erythrocyte in reaction buffer (50 mM MOPS solution pH 7.5) for 15 minutes at 25° C. The reaction was initiated by addition of 500 μM 4-nitrophenyl acetate and incubated for 30 minutes. The plate was read on a spectrophotometer (Absorbance: 400 nm)

[3] = molecular target: carbonic anhydrase II enzyme (Homo sapiens (Human), UniProt P00918); experiment: Carbonic Anhydrase 2 Enzymatic Assay; type: biochemical; details: enzyme from human erythrocyte, 500 μM 4-nitrophenyl acetate, absorbance 400 nm; read-out: CA II IC50
Experimental: Carbonic Anhydrase 2 Enzymatic Assay
as §1, with “II” for “I”

[4] = molecular target: Recombinant human ENPP1 protein (Homo sapiens (Human), UniProt P22413); experiment: ENPP1 cGAMP Biochemical Assay; details: 0.5 nM ENPP1, 1000 nM 2′3′-cGAMP substrate, TR-FRET
Experimental: ENPP1 cGAMP Biochemical Assay
Compounds were added to 384 well Proxiplate (PerkinElmer, Waltham MA) at 100 nl/well from DMSO stocks using Echo (Labcyte, San Jose CA). Recombinant human ENPP1 protein (R&D Systems, Minneapolis MN) was prepared in assay buffer (50 mM Tris pH7.5, 1 mM TCEP pH7.0, 2 mM MgCl2 and 0.005% Tween20) and added at 10 μl/well. The plate was sealed, centrifuged at 1000 rpm for 1 minute and incubated at room temperature for 30 minutes before 5 μl substrate 2′3′-cGAMP (R&D Systems, Minneapolis MN) in assay buffer was added to each well to a final concentration of 0.5 nM ENPP1 and 1000 nM 2′3′-cGAMP. The plate was sealed and centrifuged at 1000 rpm for 1 minute again. After incubation at 25° C. for 60 minutes, Terbium labelled AMP/GMP antibody and AMP/GMP HiLyte647 Tracer (BellBrook Labs, Fitchburg WI) in detection buffer (50 mM Tris pH7.5, 20 mM EDTA and 0.1% Prionex) were added to the reaction mixture to a final concentration of 2 nM (5 μl/well). The assay plate was incubated at room temperature for 120 minutes. TR-FRET signal was detected using Envision (PerkinElmer, Waltham MA).

Sequence of Recombinant human ENPP1 protein (P22413 whole entry): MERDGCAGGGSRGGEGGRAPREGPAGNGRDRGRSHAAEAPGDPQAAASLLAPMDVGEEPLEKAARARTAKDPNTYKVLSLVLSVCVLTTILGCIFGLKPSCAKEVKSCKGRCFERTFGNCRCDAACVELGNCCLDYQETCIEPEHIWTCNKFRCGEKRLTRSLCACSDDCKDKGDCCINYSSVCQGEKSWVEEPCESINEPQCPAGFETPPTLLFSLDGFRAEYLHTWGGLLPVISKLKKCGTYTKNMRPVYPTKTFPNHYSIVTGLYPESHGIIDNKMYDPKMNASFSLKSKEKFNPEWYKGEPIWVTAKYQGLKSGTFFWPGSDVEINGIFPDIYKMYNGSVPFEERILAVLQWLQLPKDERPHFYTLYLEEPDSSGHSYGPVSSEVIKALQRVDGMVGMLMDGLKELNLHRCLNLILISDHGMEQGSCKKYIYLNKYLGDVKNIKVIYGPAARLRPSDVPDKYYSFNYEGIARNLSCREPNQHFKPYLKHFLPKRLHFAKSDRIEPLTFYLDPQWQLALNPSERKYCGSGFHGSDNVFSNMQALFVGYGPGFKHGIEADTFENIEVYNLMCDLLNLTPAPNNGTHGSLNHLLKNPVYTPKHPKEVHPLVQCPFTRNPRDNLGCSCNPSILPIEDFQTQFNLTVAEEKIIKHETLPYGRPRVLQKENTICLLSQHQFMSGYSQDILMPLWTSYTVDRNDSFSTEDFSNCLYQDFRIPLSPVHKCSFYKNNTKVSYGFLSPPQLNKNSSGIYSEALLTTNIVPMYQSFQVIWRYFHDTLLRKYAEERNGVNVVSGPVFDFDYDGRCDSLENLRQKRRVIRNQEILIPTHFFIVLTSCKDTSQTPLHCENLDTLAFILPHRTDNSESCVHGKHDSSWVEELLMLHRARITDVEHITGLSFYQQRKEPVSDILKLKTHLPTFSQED
Sequence of Recombinant human ENPP3 protein (O14638 whole entry): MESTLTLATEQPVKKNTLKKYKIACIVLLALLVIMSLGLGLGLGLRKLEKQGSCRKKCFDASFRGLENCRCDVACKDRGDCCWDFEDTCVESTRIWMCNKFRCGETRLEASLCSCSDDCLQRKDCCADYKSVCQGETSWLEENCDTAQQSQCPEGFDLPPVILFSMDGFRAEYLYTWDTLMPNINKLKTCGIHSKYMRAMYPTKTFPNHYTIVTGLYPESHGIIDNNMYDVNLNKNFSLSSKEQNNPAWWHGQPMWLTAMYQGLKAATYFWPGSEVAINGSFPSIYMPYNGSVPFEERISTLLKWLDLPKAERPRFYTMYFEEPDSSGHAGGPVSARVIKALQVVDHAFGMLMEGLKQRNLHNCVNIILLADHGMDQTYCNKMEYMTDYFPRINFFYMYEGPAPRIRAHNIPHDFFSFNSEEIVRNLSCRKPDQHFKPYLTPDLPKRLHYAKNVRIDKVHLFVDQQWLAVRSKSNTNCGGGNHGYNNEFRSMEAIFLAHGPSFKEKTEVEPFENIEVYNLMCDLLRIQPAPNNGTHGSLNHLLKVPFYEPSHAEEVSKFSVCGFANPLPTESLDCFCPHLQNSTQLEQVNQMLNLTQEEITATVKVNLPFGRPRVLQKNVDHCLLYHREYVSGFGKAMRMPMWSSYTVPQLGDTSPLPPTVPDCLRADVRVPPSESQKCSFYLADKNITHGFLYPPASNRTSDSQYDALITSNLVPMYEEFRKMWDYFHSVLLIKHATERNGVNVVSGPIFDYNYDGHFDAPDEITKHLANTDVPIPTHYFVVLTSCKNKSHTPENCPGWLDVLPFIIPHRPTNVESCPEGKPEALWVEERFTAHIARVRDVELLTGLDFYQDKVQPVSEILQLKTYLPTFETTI
Sequence of carbonic anhydrase I enzyme (P00915 whole entry): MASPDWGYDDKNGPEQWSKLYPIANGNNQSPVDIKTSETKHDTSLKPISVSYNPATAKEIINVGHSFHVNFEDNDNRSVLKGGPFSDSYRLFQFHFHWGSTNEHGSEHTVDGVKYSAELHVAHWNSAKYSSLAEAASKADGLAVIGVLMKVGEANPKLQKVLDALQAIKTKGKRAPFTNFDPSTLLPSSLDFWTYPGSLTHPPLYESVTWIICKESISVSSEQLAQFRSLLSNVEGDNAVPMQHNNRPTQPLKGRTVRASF

IC50 [1]	IC50 [2]	IC50 [3]	IC50 [4]	Structure (SMILES)
100 to 1000 nM	≥ 1000 nM	≥ 1000 nM		CCn1ncc2c(NCc3ccc(S(N)(=O)=NC#N)cc3)ccnc21 (stereo not drawn) [Compound 12G, N′-cyano-4-(((1-ethyl-1H-pyrazolo[3,4-b]pyridin-4-yl)amino)methyl)benzenesulfonimidamide]
< 10 nM	100 to 1000 nM	100 to 1000 nM	< 10 nM	C#CCn1nc(Cl)c2c(NCc3ccc([S@@](=N)(=O)NC#N)cc3)ccnc21 [Compound 12K, (S)-4-(((3-chloro-1-(prop-2-yn-1-yl)-1H-pyrazolo[3,4-b]pyridin-4-yl)amino)methyl)-N-cyanobenzenesulfonimidamide]
100 to 1000 nM	≥ 1000 nM	≥ 1000 nM	< 10 nM	CN=[S@@](N)(=O)N1CCC(CNc2ccnc3c2c(Cl)nn3CC#N)CC1 [Compound 15H, (R)-4-(((3-chloro-1-(cyanomethyl)-1H-pyrazolo[3,4-b]pyridin-4-yl)amino)methyl)-N′-methylpiperidine-1-sulfonimidamide]
< 10 nM	100 to 1000 nM	≥ 1000 nM	< 10 nM	N#CCn1nc(Cl)c2c(NCc3ccc(S(N)(=O)=NC#N)cc3)ccnc21 (stereo not drawn) [Compound 12H, 4-(((3-chloro-1-(cyanomethyl)-1H-pyrazolo[3,4-b]pyridin-4-yl)amino)methyl)-N′-cyanobenzenesulfonimidamide]
100 to 1000 nM			< 10 nM	CCn1nc(Cl)c2c(NCc3ccc(S(=N)(=O)CC4CC4)cc3)ccnc21 (stereo not drawn) [Compound 9J, (4-(((3-chloro-1-ethyl-1H-pyrazolo[3,4-b]pyridin-4-yl)amino)methyl)phenyl) (cyclopropylmethyl)(imino)-λ^6-sulfanone]
10 to 100 nM			< 10 nM	CS(=N)(=O)N1CCC(CNc2ccnc3c2c(Cl)nn3CC#N)CC1 (stereo not drawn) [Compound 13D, 2-(3-chloro-4-(((1-(S-methylsulfonimidoyl)piperidin-4-yl)methyl)amino)-1H-pyrazolo[3,4-b]pyridin-1-yl)acetonitrile]
10 to 100 nM			< 10 nM	C[S@@](=N)(=O)N1CCC(CNc2ccnc3c2c(Cl)nn3CC#N)CC1 [Compound 13E, (S)-2-(3-chloro-4-(((1-(S-methylsulfonimidoyl)piperidin-4-yl)methyl)amino)-1H-pyrazolo[3,4-b]pyridin-1-yl)acetonitrile]
10 to 100 nM			< 10 nM	C#CCn1nc(Cl)c2c(NCc3ccc(S(C)(=N)=O)cc3)ccnc21 (stereo not drawn) [Compound 9D, (4-(((3-chloro-1-(prop-2-yn-1-yl)-1H-pyrazolo[3,4-b]pyridin-4-yl)amino)methyl)phenyl)(imino)(methyl)-λ6-sulfanone]
10 to 100 nM			< 10 nM	C#CCn1nc(Cl)c2c(N(C)Cc3ccc([S@](C)(=N)=O)cc3)ccnc21 [Compound 9B, (R)-(4-(((3-chloro-1-(prop-2-yn-1-yl)-1H-pyrazolo[3,4-b]pyridin-4-yl)(methyl)amino)methyl)phenyl)(imino)(methyl)-λ^6-sulfanone]
≥ 1000 nM			10 to 100 nM	CCn1nc(Cl)c2c(NCC3CCN([S@@](=N)(=O)CCOC)CC3)ccnc21 [Compound 14C, (R)-3-chloro-1-ethyl-N-((1-(2-methoxyethylsulfonimidoyl)piperidin-4-yl)methyl)-1H-pyrazolo[3,4-b]pyridin-4-amine]
≥ 1000 nM			< 10 nM	CCn1nc(Cl)c2c(NCc3ccc([S@](=N)(=O)CCOC)cc3)ccnc21 [Compound 9N, (R)-(4-(((3-chloro-1-ethyl-1H-pyrazolo [3,4-b]pyridine-4-yl)amino)methyl)phenyl)(imino)(2-methoxyethyl)-λ^6-sulfanone]
≥ 1000 nM			≥ 1000 nM	CCn1ncc2c(NCc3ccc(S(C)(=N)=O)cc3)ccnc21 (stereo not drawn) [Compound 9E, (4-(((1-ethyl-1H-pyrazolo[3,4-b]pyridin-4-yl)amino)methyl)phenyl)(imino)(methyl)-λ6-sulfanone]
≥ 1000 nM			10 to 100 nM	CCn1nc(Cl)c2c(NCc3ccc([S@@](N)(=O)=NC)cc3)ccnc21 [Compound 12C, (S)-4-(((3-chloro-1-ethyl-1H-pyrazolo[3,4-b]pyridin-4-yl)amino)methyl)-N′-methyl benzenesulfonimidamide]
≥ 1000 nM			10 to 100 nM	CCn1nc(Cl)c2c(NCc3ccc(S(N)(=O)=NCC(F)(F)F)cc3)ccnc21 (stereo not drawn) [Compound 12E, 4-(((3-chloro-1-ethyl-1H-pyrazolo[3,4-b]pyridin-4-yl)amino)methyl)-N′-(2,2,2-trifluoroethyl) benzenesulfonimidamide]
≥ 1000 nM			10 to 100 nM	CCn1nc(Cl)c2c(NCC3CCN([S@@](C)(=N)=O)CC3)ccnc21 [Compound 13G, (R)-3-chloro-1-ethyl-N-((1-(S-methylsulfonimidoyl)piperidin-4-yl)methyl)-1H-pyrazolo[3,4-b]pyridin-4-amine]

Second part, the molecule before the results:

Structure (SMILES)	IC50 [1]	IC50 [2]	IC50 [3]	IC50 [4]
CCn1ncc2c(NCC3CCN(S(C)(=N)=O)CC3)ccnc21 (stereo not drawn) [Compound 4A, 1-ethyl-N-((1-(S-methylsulfonimidoyl)piperidin-4-yl)methyl)-1H-pyrazolo[3,4-b]pyridin-4-amine]	≥ 1000 nM	≥ 1000 nM	≥ 1000 nM	
CCn1ncc2c(Nc3ccc(S(N)(=O)=NC)cc3)ccnc21 (stereo not drawn) [Compound 5B, 4-((1-ethyl-1H-pyrazolo[3,4-b]pyridin-4-yl)amino)-N′-methylbenzenesulfonimidamide]	≥ 1000 nM			10 to 100 nM
C#CCn1nc(Cl)c2c(N(C)Cc3ccc(S(N)(=O)=NC)cc3)ccnc21 (stereo not drawn) [Compound 3C, 4-(((3-chloro-1-(prop-2-yn-1-yl)-1H-pyrazolo[3,4-b]pyridin-4-yl)(methyl)amino)methyl)-N′-methylbenzenesulfonimidamide]	100 to 1000 nM			< 10 nM
CCN=S(N)(=O)c1ccc(Nc2ccnc3c2c(Cl)nn3CC)cc1 (stereo not drawn) [Compound 5E, 4-((3-chloro-1-ethyl-1H-pyrazolo[3,4-b]pyridin-4-yl)amino)-N′-ethylbenzenesulfonimidamide]	100 to 1000 nM			< 10 nM
CCn1nc(Cl)c2c(Nc3ccc(S(N)(=O)=NC(C)C)cc3)ccnc21 (stereo not drawn) [Compound 5H, 4-((3-chloro-1-ethyl-1H-pyrazolo[3,4-b]pyridin-4-yl)amino)-N′-isopropylbenzenesulfonimidamide]	100 to 1000 nM			< 10 nM
C#CCn1nc(Cl)c2c(NCc3c(F)cc(S(N)(=O)=NC)cc3F)ccnc21 (stereo not drawn) [Compound 3B, 4-(((3-chloro-1-(prop-2-yn-1-yl)-1H-pyrazolo[3,4-b]pyridin-4-yl)amino)methyl)-3,5-difluoro-N-methylbenzenesulfonimidamide]	100 to 1000 nM			< 10 nM
CS(=N)(=O)c1ccc(COc2ccnc3c2c(Cl)nn3CC#N)cc1 (stereo not drawn) [Compound 8A, 2-(3-chloro-4-((4-(S-methylsulfonimidoyl)benzyl)oxy)-1H-pyrazolo[3,4-b]pyridin-1-yl) acetonitrile]	100 to 1000 nM			< 10 nM
CCn1ncc2c(NCc3ccc(S(N)(=O)=NC#N)cc3)ccnc21 (stereo not drawn) [Compound 3D, N′-cyano-4-(((1-ethyl-1H-pyrazolo[3,4-b]pyridin-4-yl)amino)methyl)benzenesulfonimidamide]	100 to 1000 nM			< 10 nM
